Where “and” joins values, the source holds several entries; their conditions need not be identical. Equal values may be shown once. ± gives the expanded uncertainty stated by the source.
Experiments:
[1] = Liquid, MP522 conductivity instrument
[2] = xn = mol fraction of the nth substance listed; conditions: 298.15 K, 101 kPa, Liquid, MP522 conductivity instrument

CCCC[n+]1ccccc1.O=S(=O)([N-]S(=O)(=O)C(F)(F)F)C(F)(F)F [1-butylpyridinium bis[(trifluoromethyl)sulfonyl]imide]
electrical conductivity ([1]; 283.15 K, 101 kPa): 0.151 ± 0.003 S/m
electrical conductivity ([1]; 283.15 K, 101.33 kPa): 0.15 S/m and 0.151 S/m
electrical conductivity ([1]; 293.15 K, 101.33 kPa): 0.246 ± 0.005 S/m
electrical conductivity ([1]; 298.15 K, 101 kPa): 0.308 ± 0.006 S/m
electrical conductivity ([1]; 298.15 K, 101.33 kPa): 0.307 S/m and 0.308 S/m
electrical conductivity ([1]; 303.15 K, 101 kPa): 0.377 ± 0.008 S/m
electrical conductivity ([1]; 303.15 K, 101.33 kPa): 0.378 S/m and 0.377 S/m
electrical conductivity ([1]; 313.15 K, 101 kPa): 0.542 S/m and 0.54 S/m
electrical conductivity ([1]; 313.15 K, 101.33 kPa): 0.541 S/m and 0.542 S/m and 0.54 S/m

CCCCCC[n+]1ccccc1.O=S(=O)([N-]S(=O)(=O)C(F)(F)F)C(F)(F)F [1-hexylpyridinium bis(trifluromethylsulfonyl)imide]
electrical conductivity ([1]; 283.15 K, 101 kPa): 0.0737 ± 0.0016 S/m
electrical conductivity ([1]; 293.15 K, 101 kPa): 0.128 S/m and 0.129 S/m
electrical conductivity ([1]; 298.15 K, 101 kPa): 0.163 ± 0.003 S/m
electrical conductivity ([1]; 303.15 K, 101 kPa): 0.205 ± 0.004 S/m
electrical conductivity ([1]; 313.15 K, 101 kPa): 0.306 ± 0.006 S/m

CCCC[n+]1ccc(C)cc1.O=S(=O)([N-]S(=O)(=O)C(F)(F)F)C(F)(F)F + CCO
electrical conductivity ([2]; x1 = 0.011): 0.243 ± 0.005 S/m
electrical conductivity ([2]; x1 = 0.0125): 0.269 ± 0.005 S/m
electrical conductivity ([2]; x1 = 0.015): 0.311 ± 0.006 S/m
electrical conductivity ([2]; x1 = 0.0186): 0.369 ± 0.007 S/m
electrical conductivity ([2]; x1 = 0.0258): 0.474 ± 0.009 S/m
electrical conductivity ([2]; x1 = 0.0376): 0.623 ± 0.012 S/m
electrical conductivity ([2]; x1 = 0.0436): 0.689 ± 0.014 S/m
electrical conductivity ([2]; x1 = 0.0602): 0.844 ± 0.017 S/m
electrical conductivity ([2]; x1 = 0.0676): 0.901 ± 0.018 S/m
electrical conductivity ([2]; x1 = 0.0852): 1.01 ± 0.02 S/m
electrical conductivity ([2]; x1 = 0.1143): 1.13 ± 0.023 S/m
electrical conductivity ([2]; x1 = 0.1262): 1.16 ± 0.023 S/m
electrical conductivity ([2]; x1 = 0.1387): 1.19 ± 0.024 S/m
electrical conductivity ([2]; x1 = 0.1537): 1.21 ± 0.024 S/m
electrical conductivity ([2]; x1 = 0.1811): 1.23 ± 0.025 S/m
electrical conductivity ([2]; x1 = 0.2232): 1.22 ± 0.024 S/m
electrical conductivity ([2]; x1 = 0.2748): 1.17 ± 0.023 S/m
electrical conductivity ([2]; x1 = 0.3347): 1.1 ± 0.022 S/m
electrical conductivity ([2]; x1 = 0.3809): 1.03 ± 0.021 S/m
electrical conductivity ([2]; x1 = 0.4405): 0.939 ± 0.019 S/m
electrical conductivity ([2]; x1 = 0.5405): 0.793 ± 0.016 S/m
electrical conductivity ([2]; x1 = 0.642): 0.663 ± 0.013 S/m
electrical conductivity ([2]; x1 = 0.7148): 0.579 ± 0.012 S/m
electrical conductivity ([2]; x1 = 0.8106): 0.482 ± 0.01 S/m
electrical conductivity ([2]; x1 = 0.9328): 0.379 ± 0.008 S/m
electrical conductivity ([2]; x1 = 1): 0.333 ± 0.007 S/m

CCCCC[n+]1ccccc1.O=S(=O)([N-]S(=O)(=O)C(F)(F)F)C(F)(F)F [1-pentylpyridinium bis(trifluoromethylsulfonyl)amide] + CCO
electrical conductivity ([2]; x1 = 0.0223): 0.403 ± 0.008 S/m
electrical conductivity ([2]; x1 = 0.0292): 0.483 ± 0.01 S/m
electrical conductivity ([2]; x1 = 0.0374): 0.574 ± 0.011 S/m
electrical conductivity ([2]; x1 = 0.0477): 0.669 ± 0.013 S/m
electrical conductivity ([2]; x1 = 0.0603): 0.761 ± 0.015 S/m
electrical conductivity ([2]; x1 = 0.0725): 0.831 ± 0.017 S/m
electrical conductivity ([2]; x1 = 0.092): 0.912 ± 0.018 S/m
electrical conductivity ([2]; x1 = 0.1279): 0.991 ± 0.02 S/m
electrical conductivity ([2]; x1 = 0.1529): 1.01 ± 0.02 S/m
electrical conductivity ([2]; x1 = 0.1636): 1.01 ± 0.02 S/m
electrical conductivity ([2]; x1 = 0.175): 1.01 ± 0.02 S/m
electrical conductivity ([2]; x1 = 0.2038): 0.998 ± 0.02 S/m
electrical conductivity ([2]; x1 = 0.2608): 0.941 ± 0.019 S/m
electrical conductivity ([2]; x1 = 0.3058): 0.882 ± 0.018 S/m
electrical conductivity ([2]; x1 = 0.3508): 0.82 ± 0.016 S/m
electrical conductivity ([2]; x1 = 0.4166): 0.731 ± 0.015 S/m
electrical conductivity ([2]; x1 = 0.4692): 0.662 ± 0.013 S/m
electrical conductivity ([2]; x1 = 0.5309): 0.587 ± 0.012 S/m
electrical conductivity ([2]; x1 = 0.6063): 0.503 ± 0.01 S/m
electrical conductivity ([2]; x1 = 0.6746): 0.437 ± 0.009 S/m
electrical conductivity ([2]; x1 = 0.7613): 0.363 ± 0.007 S/m
electrical conductivity ([2]; x1 = 0.8138): 0.325 ± 0.007 S/m
electrical conductivity ([2]; x1 = 0.8772): 0.283 ± 0.006 S/m
electrical conductivity ([2]; x1 = 0.9319): 0.251 ± 0.005 S/m
electrical conductivity ([2]; x1 = 1): 0.216 ± 0.004 S/m

CC[n+]1ccc(C)cc1.O=S(=O)([N-]S(=O)(=O)C(F)(F)F)C(F)(F)F + CO
electrical conductivity ([2]; x1 = 0.00925): 0.925 ± 0.019 S/m
electrical conductivity ([2]; x1 = 0.0105): 1.01 ± 0.02 S/m
electrical conductivity ([2]; x1 = 0.0144): 1.27 ± 0.025 S/m
electrical conductivity ([2]; x1 = 0.0176): 1.45 ± 0.029 S/m
electrical conductivity ([2]; x1 = 0.0227): 1.72 ± 0.034 S/m
electrical conductivity ([2]; x1 = 0.0313): 2.1 ± 0.042 S/m
electrical conductivity ([2]; x1 = 0.0393): 2.36 ± 0.047 S/m
electrical conductivity ([2]; x1 = 0.0492): 2.62 ± 0.052 S/m
electrical conductivity ([2]; x1 = 0.0575): 2.79 ± 0.056 S/m
electrical conductivity ([2]; x1 = 0.0666): 2.94 ± 0.059 S/m
electrical conductivity ([2]; x1 = 0.0757): 3.05 ± 0.061 S/m
electrical conductivity ([2]; x1 = 0.0856): 3.14 ± 0.063 S/m
electrical conductivity ([2]; x1 = 0.0993): 3.22 ± 0.064 S/m
electrical conductivity ([2]; x1 = 0.1435): 3.26 ± 0.065 S/m
electrical conductivity ([2]; x1 = 0.1601): 3.23 ± 0.065 S/m
electrical conductivity ([2]; x1 = 0.1736): 3.2 ± 0.064 S/m
electrical conductivity ([2]; x1 = 0.1902): 3.14 ± 0.063 S/m
electrical conductivity ([2]; x1 = 0.2037): 3.09 ± 0.062 S/m
electrical conductivity ([2]; x1 = 0.2297): 2.97 ± 0.059 S/m
electrical conductivity ([2]; x1 = 0.2575): 2.84 ± 0.057 S/m
electrical conductivity ([2]; x1 = 0.284): 2.72 ± 0.054 S/m
electrical conductivity ([2]; x1 = 0.3231): 2.53 ± 0.051 S/m
electrical conductivity ([2]; x1 = 0.3561): 2.39 ± 0.048 S/m
electrical conductivity ([2]; x1 = 0.3932): 2.23 ± 0.045 S/m
electrical conductivity ([2]; x1 = 0.4574): 2 ± 0.04 S/m
electrical conductivity ([2]; x1 = 0.5075): 1.81 ± 0.036 S/m
electrical conductivity ([2]; x1 = 0.5713): 1.61 ± 0.032 S/m
electrical conductivity ([2]; x1 = 0.6042): 1.52 ± 0.03 S/m
electrical conductivity ([2]; x1 = 0.6803): 1.33 ± 0.027 S/m
electrical conductivity ([2]; x1 = 0.7416): 1.2 ± 0.024 S/m
electrical conductivity ([2]; x1 = 0.8215): 1.04 ± 0.021 S/m
electrical conductivity ([2]; x1 = 0.8959): 0.912 ± 0.018 S/m
electrical conductivity ([2]; x1 = 0.918): 0.883 ± 0.018 S/m
electrical conductivity ([2]; x1 = 1): 0.771 ± 0.015 S/m

CC[n+]1ccc(C)cc1.O=S(=O)([N-]S(=O)(=O)C(F)(F)F)C(F)(F)F
electrical conductivity ([1]; 298.15 K, 101 kPa): 0.771 S/m and 0.769 S/m

CC[n+]1ccc(C)cc1.O=S(=O)([N-]S(=O)(=O)C(F)(F)F)C(F)(F)F + CCO
electrical conductivity ([2]; x1 = 0.0118): 0.292 ± 0.006 S/m
electrical conductivity ([2]; x1 = 0.0152): 0.36 ± 0.007 S/m
electrical conductivity ([2]; x1 = 0.021): 0.468 ± 0.009 S/m
electrical conductivity ([2]; x1 = 0.0327): 0.669 ± 0.013 S/m
electrical conductivity ([2]; x1 = 0.0593): 1.04 ± 0.021 S/m
electrical conductivity ([2]; x1 = 0.07): 1.16 ± 0.023 S/m
electrical conductivity ([2]; x1 = 0.0857): 1.31 ± 0.026 S/m
electrical conductivity ([2]; x1 = 0.1196): 1.56 ± 0.031 S/m
electrical conductivity ([2]; x1 = 0.1573): 1.73 ± 0.035 S/m
electrical conductivity ([2]; x1 = 0.2361): 1.87 ± 0.037 S/m
electrical conductivity ([2]; x1 = 0.3013): 1.86 ± 0.037 S/m
electrical conductivity ([2]; x1 = 0.3773): 1.77 ± 0.036 S/m
electrical conductivity ([2]; x1 = 0.4527): 1.65 ± 0.033 S/m
electrical conductivity ([2]; x1 = 0.53): 1.51 ± 0.03 S/m
electrical conductivity ([2]; x1 = 0.608): 1.37 ± 0.027 S/m
electrical conductivity ([2]; x1 = 0.6908): 1.22 ± 0.024 S/m
electrical conductivity ([2]; x1 = 0.7803): 1.07 ± 0.021 S/m
electrical conductivity ([2]; x1 = 0.8913): 0.903 ± 0.018 S/m
electrical conductivity ([2]; x1 = 1): 0.769 ± 0.015 S/m

CC[n+]1ccccc1.O=S(=O)([N-]S(=O)(=O)C(F)(F)F)C(F)(F)F [1-ethylpyridinium bis[(trifluoromethyl)sulfonyl]imide] + CO
electrical conductivity ([2]; x1 = 0.0169): 1.42 ± 0.028 S/m
electrical conductivity ([2]; x1 = 0.0206): 1.61 ± 0.032 S/m
electrical conductivity ([2]; x1 = 0.03): 2 ± 0.04 S/m
electrical conductivity ([2]; x1 = 0.0416): 2.42 ± 0.048 S/m
electrical conductivity ([2]; x1 = 0.0535): 2.7 ± 0.054 S/m
electrical conductivity ([2]; x1 = 0.068): 2.93 ± 0.059 S/m
electrical conductivity ([2]; x1 = 0.089): 3.11 ± 0.062 S/m
electrical conductivity ([2]; x1 = 0.1049): 3.17 ± 0.063 S/m
electrical conductivity ([2]; x1 = 0.1209): 3.19 ± 0.064 S/m
electrical conductivity ([2]; x1 = 0.1541): 3.14 ± 0.063 S/m
electrical conductivity ([2]; x1 = 0.2007): 2.95 ± 0.059 S/m
electrical conductivity ([2]; x1 = 0.2781): 2.55 ± 0.051 S/m
electrical conductivity ([2]; x1 = 0.3667): 2.12 ± 0.042 S/m
electrical conductivity ([2]; x1 = 0.4224): 1.9 ± 0.038 S/m
electrical conductivity ([2]; x1 = 0.5562): 1.44 ± 0.029 S/m
electrical conductivity ([2]; x1 = 0.6863): 1.12 ± 0.023 S/m
electrical conductivity ([2]; x1 = 0.8307): 0.863 ± 0.017 S/m
electrical conductivity ([2]; x1 = 1): 0.63 ± 0.013 S/m
